US8722580B2, “Agent for inhibiting cytokinin signaling” (Sumitomo Chemical Company, Limited, priority 2006, dated 2014)

What was measured:
[1] = target: T1, cytokinin receptor CRE1 (Arabidopsis thaliana, UniProt Q9C5U0, S567G/T1018A); assay: Inhibition of intracellular signaling from plant-derived cytokinin receptor, growth of transformed yeast cell TM182-CRE1; type: cell-based; details: trans-zeatin 0.6 ppm, chemical substance 2 ppm; for Relative growth rate (%) in test section of test substance to control section, Transformed cell TM182-CRE1: 30° C., 24 hours, turbidity OD 600; for Activity (%) of test substance for inhibiting intracellular signaling from plant-derived cytokinin receptor of cell: = 100 − relative growth rate of TM182-CRE1
T1 construct: expressed in transfected cells; host or cells: Saccharomyces cerevisiae TM182 (sln1Δ) transformed with p415CYC-CRE1
Protocol: (§1) The transformed cell TM182-CRE1 and the transformed cell TM182-p415CYC1 obtained in Example 6 were each inoculated in 10 ml of a DOLU+Gal medium, and preincubated at 30° C. for 18 hours to obtain a preincubation liquid for each of the transformed cells. The preincubation liquid was diluted with a DOLU+Glu medium for the transformed cell TM182-CRE1 or with a DOLU+Gal medium for the transformed cell TM182-p415CYC1 until OD600=0.1 was reached, to obtain a preincubation dilution for each of the transformed cells.
(§2) To each well of a 96-well plate was added 1 μl of a 200 ppm solution of a test substance in dimethyl sulfoxide (DMSO) to prepare an Assay plate. At the same time, as controls, only 1 μl of DMSO was added to a part of wells. An assay plate for the transformed cell TM182-CRE1 and an assay plate for the transformed cell TM182-p415CYC1 were prepared.
(§3) A 10,000 ppm solution of trans-zeatin (cytokinin) in DMSO was 50-fold diluted with a DOLU+Gul medium to 200 ppm. The 200 ppm trans-zeatin solution was added in an amount of 3/1,000 volume to each of the above-described preincubation dilution to prepare each preincubation dilution containing trans-zeatin at 0.6 ppm. The 0.6 ppm preincubation dilution was added in an amount of 100 μl to each wells of the assay plate for each transformed cell. The plates were incubated at 30° C. for 24 hours. Then, turbidity (OD 600) of each well was measured by using a plate reader. The activity of the test substance for inhibiting intracellular signaling from a plant-derived cytokinin receptor of a cell was tested by comparing the measured turbidity with the turbidity of the control well.
(§4) (Relative growth rate in test section to control section) [%]=[(Turbidity in test section)−(Turbidity in blank)]/[(Turbidity in control section)−(Turbidity in blank)]×100 (Activity of inhibiting intracellular signaling from plant-derived cytokinin receptor of cell) [%]=100−(Relative growth rate in test section to control section)
(§5) In all cases, the existing concentration of trans-zeatin was adjusted to 0.6 ppm and the existing concentration of a chemical substance was adjusted to 2 ppm.
(§6) In all cases, the existing concentration of trans-zeatin was adjusted to 0.6 ppm and the existing concentration of a chemical substance was adjusted to 2 […].

[2] = test system: transformed cell TM182-p415CYC1; assay: Control growth test with transformed yeast cell TM182-p415CYC1 (toxicity to yeast); type: cell-based; details: trans-zeatin 0.6 ppm; chemical substance 2 ppm; 30° C., 24 hours; turbidity OD 600
Protocol: as §1, §2, §3, §4, §5, §6

[3] = test system: Arabidopsis thaliana; assay: Root growth-promoting activity test (Example 9); type: in vivo; details: main root length vs control section, 22° C., 10 days
Protocol: Enshi standard medium having the following composition (see Table 10) was prepared. To cluster tubes was dispensed each 4 μl of a solution of a chemical substance in DMSO to a final concentration of 0.001 ppm to 10 ppm, and then, was dispensed each 600 μl of the sterilized Enshi standard medium. Then the resulting solution was well mixed. In each of the cluster tubes, 10-20 seeds of Arabidopsis thaliana were sown, and cultured at 22° C. for 10 days in the light. Then, the length of main roots (average main roots) generated from the seeds of Arabidopsis thaliana was measured. An average of eight repeats was determined, and a root growth rate was determined according to the following equation.
Root growth rate (%)=(Average main root length in chemical substance-treated section)/(Average main root length in control section)×100

[4] = test final concentration 5 ppm (concentration with highest root growth rate)
[5] = test final concentration 2.5 ppm (concentration with highest root growth rate)
[6] = test final concentration 10 ppm (concentration with highest root growth rate)
[7] = test final concentration 0.625 ppm (concentration with highest root growth rate)
[8] = test final concentration 0.156 ppm (concentration with highest root growth rate)

T1 sequence (Q9C5U0 24-1080 S567G/T1018A): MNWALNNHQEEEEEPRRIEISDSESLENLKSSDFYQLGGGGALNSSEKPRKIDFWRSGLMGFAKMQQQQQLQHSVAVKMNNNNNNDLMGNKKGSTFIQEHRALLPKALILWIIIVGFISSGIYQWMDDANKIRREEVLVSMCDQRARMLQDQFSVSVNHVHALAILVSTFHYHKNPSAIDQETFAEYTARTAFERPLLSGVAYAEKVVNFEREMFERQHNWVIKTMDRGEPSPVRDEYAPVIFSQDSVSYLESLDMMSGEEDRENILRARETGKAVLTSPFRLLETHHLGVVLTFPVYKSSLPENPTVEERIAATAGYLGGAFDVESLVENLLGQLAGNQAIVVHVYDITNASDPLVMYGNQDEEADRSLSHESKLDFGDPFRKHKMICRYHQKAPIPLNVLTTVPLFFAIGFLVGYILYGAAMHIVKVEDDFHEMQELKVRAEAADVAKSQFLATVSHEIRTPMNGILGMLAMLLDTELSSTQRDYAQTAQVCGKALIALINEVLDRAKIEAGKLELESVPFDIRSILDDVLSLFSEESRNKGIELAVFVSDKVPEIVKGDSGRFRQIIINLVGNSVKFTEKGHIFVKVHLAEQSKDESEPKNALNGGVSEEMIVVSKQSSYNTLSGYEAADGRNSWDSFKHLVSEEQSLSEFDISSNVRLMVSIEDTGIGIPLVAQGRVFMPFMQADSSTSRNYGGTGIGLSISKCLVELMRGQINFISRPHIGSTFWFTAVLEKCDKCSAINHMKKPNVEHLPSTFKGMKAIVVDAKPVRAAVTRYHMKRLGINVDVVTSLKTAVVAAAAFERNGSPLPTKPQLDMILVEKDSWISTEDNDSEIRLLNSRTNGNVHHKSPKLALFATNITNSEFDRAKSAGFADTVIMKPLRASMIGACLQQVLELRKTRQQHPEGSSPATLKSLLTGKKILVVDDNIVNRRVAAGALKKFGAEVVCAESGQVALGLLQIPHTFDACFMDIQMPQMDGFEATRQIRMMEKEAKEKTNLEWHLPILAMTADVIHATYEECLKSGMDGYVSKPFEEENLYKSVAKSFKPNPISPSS

CCOCCNc1nc(-c2ccccc2)c2cc(Cl)ccc2n1 [Ic3-45]
Relative growth rate (%) in test section of test substance to control section, Transformed cell TM182-CRE1 [1]: 0.8% | Activity (%) of test substance for inhibiting intracellular signaling from plant-derived cytokinin receptor of cell [1]: 99.2% | Relative growth rate (%) in test section of test substance to control section, Transformed cell TM182-p415CYC1 [2]: 98.7%

Clc1nc(-c2ccccc2)c2c(Cl)cccc2n1 [Ia1-1]
Root growth-promoting activity (root growth rate) [3, 4]: 133.3%

Cc1ccc2nc(NCCCO)nc(-c3ccccc3)c2c1 [Ic5-5]
Relative growth rate (%) in test section of test substance to control section, Transformed cell TM182-CRE1 [1]: 7.2% | Activity (%) of test substance for inhibiting intracellular signaling from plant-derived cytokinin receptor of cell [1]: 92.8% | Relative growth rate (%) in test section of test substance to control section, Transformed cell TM182-p415CYC1 [2]: 126.3% | Root growth-promoting activity (root growth rate) [3, 5]: 157.8%

NNc1nc(-c2ccccc2)c2cc(Cl)ccc2n1 [Ic3-20]
Relative growth rate (%) in test section of test substance to control section, Transformed cell TM182-CRE1 [1]: 5.0% | Activity (%) of test substance for inhibiting intracellular signaling from plant-derived cytokinin receptor of cell [1]: 95.0% | Relative growth rate (%) in test section of test substance to control section, Transformed cell TM182-p415CYC1 [2]: 86.5% | Root growth-promoting activity (root growth rate) [3, 6]: 137.8%

Nc1nc(-c2ccccc2)c2cc(Cl)ccc2n1 [Ic3-19]
Relative growth rate (%) in test section of test substance to control section, Transformed cell TM182-CRE1 [1]: 2.4% | Activity (%) of test substance for inhibiting intracellular signaling from plant-derived cytokinin receptor of cell [1]: 97.6% | Relative growth rate (%) in test section of test substance to control section, Transformed cell TM182-p415CYC1 [2]: 102.7% | Root growth-promoting activity (root growth rate) ([3]; test final concentration 1.25 ppm (concentration with highest root growth rate)): 155.6%

N#CCCNc1nc(-c2ccccc2)c2cc(Cl)ccc2n1 [Ic3-34]
Relative growth rate (%) in test section of test substance to control section, Transformed cell TM182-CRE1 [1]: 0.2% | Activity (%) of test substance for inhibiting intracellular signaling from plant-derived cytokinin receptor of cell [1]: 99.8% | Relative growth rate (%) in test section of test substance to control section, Transformed cell TM182-p415CYC1 [2]: 118.5%

NCCOc1nc(-c2ccccc2)c2cc(Cl)ccc2n1 [Id3-1, 2-(2-aminoethoxy)-6-chloro-4-phenylquinazotine]
Relative growth rate (%) in test section of test substance to control section, Transformed cell TM182-CRE1 [1]: 2.1% | Activity (%) of test substance for inhibiting intracellular signaling from plant-derived cytokinin receptor of cell [1]: 97.9% | Relative growth rate (%) in test section of test substance to control section, Transformed cell TM182-p415CYC1 [2]: 112.5%

CN(C)CCNc1nc(-c2ccccc2)c2cc(Cl)ccc2n1 [Ic3-21]
Relative growth rate (%) in test section of test substance to control section, Transformed cell TM182-CRE1 [1]: 5.0% | Activity (%) of test substance for inhibiting intracellular signaling from plant-derived cytokinin receptor of cell [1]: 95.0% | Relative growth rate (%) in test section of test substance to control section, Transformed cell TM182-p415CYC1 [2]: 121.6% | Root growth-promoting activity (root growth rate) [3, 5]: 131.7%

O=Cc1nc(-c2ccccc2Cl)c2cc(Br)ccc2n1 [Ib4-1]
Relative growth rate (%) in test section of test substance to control section, Transformed cell TM182-CRE1 [1]: 8.7% | Activity (%) of test substance for inhibiting intracellular signaling from plant-derived cytokinin receptor of cell [1]: 91.3% | Relative growth rate (%) in test section of test substance to control section, Transformed cell TM182-p415CYC1 [2]: 110.9%

CNc1nc(-c2ccccc2)c2cc(Cl)ccc2n1 [Ic3-23]
Relative growth rate (%) in test section of test substance to control section, Transformed cell TM182-CRE1 [1]: 4.1% | Activity (%) of test substance for inhibiting intracellular signaling from plant-derived cytokinin receptor of cell [1]: 95.9% | Relative growth rate (%) in test section of test substance to control section, Transformed cell TM182-p415CYC1 [2]: 108.1% | Root growth-promoting activity (root growth rate) [3, 6]: 150.0%

OCCCNc1nc(-c2ccccc2)c2cc(F)ccc2n1 [Ic2-1]
Relative growth rate (%) in test section of test substance to control section, Transformed cell TM182-CRE1 [1]: 2.8% | Activity (%) of test substance for inhibiting intracellular signaling from plant-derived cytokinin receptor of cell [1]: 97.2% | Relative growth rate (%) in test section of test substance to control section, Transformed cell TM182-p415CYC1 [2]: 124.6% | Root growth-promoting activity (root growth rate) [3, 5]: 127.4%

OCCNc1nc(-c2ccccc2)c2cc(Br)ccc2n1 [Ic4-1]
Relative growth rate (%) in test section of test substance to control section, Transformed cell TM182-CRE1 [1]: 4.6% | Activity (%) of test substance for inhibiting intracellular signaling from plant-derived cytokinin receptor of cell [1]: 95.4% | Relative growth rate (%) in test section of test substance to control section, Transformed cell TM182-p415CYC1 [2]: 95.0%

CN(CCO)c1nc(-c2ccccc2)c2cc(Cl)ccc2n1 [Ic3-6]
Relative growth rate (%) in test section of test substance to control section, Transformed cell TM182-CRE1 [1]: 2.8% | Activity (%) of test substance for inhibiting intracellular signaling from plant-derived cytokinin receptor of cell [1]: 97.2% | Relative growth rate (%) in test section of test substance to control section, Transformed cell TM182-p415CYC1 [2]: 114.6% | Root growth-promoting activity (root growth rate) [3, 7]: 122.4%

COc1ccc2nc(NCCCO)nc(-c3ccccc3)c2c1 [Ic8-1]
Root growth-promoting activity (root growth rate) [3, 6]: 162.1%

N=C(N)Nc1nc(-c2ccccc2)c2cc(Cl)ccc2n1 [Ic3-36]
Root growth-promoting activity (root growth rate) [3, 5]: 123.1%

NC(=O)CNc1nc(-c2ccccc2)c2cc(Cl)ccc2n1 [Ic3-31]
Root growth-promoting activity (root growth rate) [3, 6]: 142.2%

FC(F)(F)c1ccc2nc(Cl)nc(-c3ccccc3)c2c1 [Ia1-6]
Root growth-promoting activity (root growth rate) [3, 7]: 126.9%

NCCSc1nc(-c2ccccc2)c2cc(Cl)ccc2n1 [Ie3-2]
Root growth-promoting activity (root growth rate) [3, 6]: 147.6%

NCCCCNc1nc(-c2ccccc2)c2cc(Cl)ccc2n1 [Ic3-22]
Relative growth rate (%) in test section of test substance to control section, Transformed cell TM182-CRE1 [1]: 4.9% | Activity (%) of test substance for inhibiting intracellular signaling from plant-derived cytokinin receptor of cell [1]: 95.1% | Relative growth rate (%) in test section of test substance to control section, Transformed cell TM182-p415CYC1 [2]: 110.6% | Root growth-promoting activity (root growth rate) [3, 8]: 129.3%

OCCCNc1nc(-c2ccccc2)c2cc(Br)ccc2n1 [Ic4-2]
Relative growth rate (%) in test section of test substance to control section, Transformed cell TM182-CRE1 [1]: 0.9% | Activity (%) of test substance for inhibiting intracellular signaling from plant-derived cytokinin receptor of cell [1]: 99.1% | Relative growth rate (%) in test section of test substance to control section, Transformed cell TM182-p415CYC1 [2]: 109.3%

C#CCNc1nc(-c2ccccc2)c2cc(Cl)ccc2n1 [Ic3-30]
Relative growth rate (%) in test section of test substance to control section, Transformed cell TM182-CRE1 [1]: 2.2% | Activity (%) of test substance for inhibiting intracellular signaling from plant-derived cytokinin receptor of cell [1]: 97.8% | Relative growth rate (%) in test section of test substance to control section, Transformed cell TM182-p415CYC1 [2]: 108.9%

Clc1cccc(-c2nc(Cl)nc3ccc(Cl)cc23)c1 [Ia1-14]
Root growth-promoting activity (root growth rate) [3, 8]: 129.3%

O=[N+]([O-])c1ccc2nc(Cl)nc(-c3ccccc3)c2c1 [Ia1-7]
Relative growth rate (%) in test section of test substance to control section, Transformed cell TM182-CRE1 [1]: 1.2% | Activity (%) of test substance for inhibiting intracellular signaling from plant-derived cytokinin receptor of cell [1]: 98.8% | Relative growth rate (%) in test section of test substance to control section, Transformed cell TM182-p415CYC1 [2]: 78.8%

N#CCNc1nc(-c2ccccc2)c2cc(Cl)ccc2n1 [Ic3-26]
Relative growth rate (%) in test section of test substance to control section, Transformed cell TM182-CRE1 [1]: 5.3% | Activity (%) of test substance for inhibiting intracellular signaling from plant-derived cytokinin receptor of cell [1]: 94.7% | Relative growth rate (%) in test section of test substance to control section, Transformed cell TM182-p415CYC1 [2]: 110.7% | Root growth-promoting activity (root growth rate) [3, 4]: 136.4%

COCCN(C)c1nc(-c2ccccc2)c2cc(Cl)ccc2n1 [Ic3-9]
Relative growth rate (%) in test section of test substance to control section, Transformed cell TM182-CRE1 [1]: 1.5% | Activity (%) of test substance for inhibiting intracellular signaling from plant-derived cytokinin receptor of cell [1]: 98.5% | Relative growth rate (%) in test section of test substance to control section, Transformed cell TM182-p415CYC1 [2]: 122.0%

Fc1ccc2nc(Cl)nc(-c3ccccc3)c2c1 [Ia1-2]
Root growth-promoting activity (root growth rate) [3, 6]: 139.7%
